Results on 14 compounds are retold here after publication PMC5412686 (Biopharmaceutics & Drug Disposition, 2017).

Data set [1] relates to Caco‐2 cells (TC7 clone). Conditions: Equation 11 from measured P‐Caco2.
For data set [2] the following is noted: human, Caco-2, pH 7.4, with cyclosporine A 10 μM.
The conditions of data set [3]: ref Supplemental Table S1, cited from earlier work; for HBD: number of hydrogen bond donors; for log D: octanol/water at pH 7.4; for PSA: polar surface area.
The conditions of data set [4]: Humans, cited from earlier work; for CL: i.v.; for CL / F / Vss: ref Supplemental Table S2; for F: oral bioavailability; for Urinary excretion (f e): excreted unchanged in urine, ref Supplemental Table S1.
For data set [5] the following is noted: cited from earlier work; for F: po.
For data set [6] the following is noted: cited from earlier work.
Data set [7] can be described thus: Intrinsic metabolic clearance determined in human liver microsomes. As to conditions: pH 7.4. It counts as in vitro ADME.
For data set [8] the following is noted: Rats, fraction unbound; ref Supplemental Table S1; cited from earlier work.
The mark [9] stands for this setting: Rats, i.v., ref Supplemental Table S2.
Where [10] appears, read: no medium marked (buffer pH 7.4), ref Supplemental Table S1.
The mark [11] stands for this setting: FaHIF, fasted human intestinal fluid.

Read-outs that look alike come from different tables or passages of the source.

For the compound `CN1CCN2c3ncccc3Cc3ccccc3C2C1` (centres unmarked) [Mirtazapine], in data set [1], the “Calculated P eff from P‐Caco2” value was 4.0 10^−4 cm/s. The Papp at 2 h, 1 μM in data set [2] is 33.2 ×10⁻⁶ cm/s. Further, in data set [3], the HBD was 0, the “log D” value is given as 0.28 and the PSA was 12.3. In data set [4], the CL was 38.3 L/h, the F is listed as 0.4 and the Vss is 3.52 L/kg. Moreover, the CL in data set [5] (setting [9]) was 29.4 mL/min/kg. In data set [5] (rat, in vivo), the F was 0.07. Besides, in data set [6] (setting [10]), the “Solubility (Biorelevant media or Buffer, pH 7.4)” value (shortened to “Solubility”) is 0.002 mg/ml. In data set [7], the microsomal CLint at 1 μM was 11 µL/min/mg.
On to `CN(C)CCc1c[nH]c2ccc(C[C@H]3COC(=O)N3)cc12` [Zolmitriptan], for which, in data set [3], the HBD was 2 and the PSA is 56.8. In data set [4], the “Urinary excretion (f e)” value is 8 % of dose, the CL is 43.06 L/h and the F is given as 0.7. Also, the CL in data set [5] (setting [9]) was 29.4 mL/min/kg. Further, in data set [5] (rat, in vivo), the F was 0.41. Further, the “Solubility” value in data set [6] (setting [10]) is recorded as 20 mg/ml.
As for `COC(=O)C1=C(C)NC(C)=C(C(=O)OCC(C)C)C1c1ccccc1[N+](=O)[O-]` (centres unmarked) [Nisoldipine], the “Calculated P eff from P‐Caco2” value in data set [1] is listed as 5.2 10^−4 cm/s. The compound further had a Papp at 2 h, 1 μM in data set [2] of 56.7 ×10⁻⁶ cm/s. In data set [8], the f up was 0.009. Also, in data set [3], the HBD is 1, the pH-dependent lipophilicity (log D) was 4.96 and the PSA is 110.5. Moreover, in data set [4], the “Urinary excretion (f e)” value is reported as < 1 % of dose, the CL is 50.82 L/h, the F was 0.04 and the Vss is 4.1 L/kg. For the same compound, the CL in data set [5] (setting [9]) was 45.8 mL/min/kg. Further, in data set [5] (rat, in vivo), the F is recorded as 0.03. For the same compound, in data set [6] (setting [10]), the “Solubility” value is on record as 0.006 mg/ml. This compound had a microsomal CLint at 1 μM in data set [7] of over 1000 µL/min/mg.
With `Cc1nnc2n1-c1ccc(Cl)cc1C(c1ccccc1Cl)=NC2` [Triazolam], the f up in data set [8] is listed as 0.28. Besides, in data set [3], the HBD was 0 and the PSA is listed as 33.3. In addition, in data set [4], the “Urinary excretion (f e)” value is on record as 2 % of dose, the CL was 12.72 L/h and the F was 0.8. Moreover, the CL in data set [5] (rat, in vivo, iv) was 51.4 mL/min/kg. The F in data set [5] (rat, in vivo) is reported as 0.16. For the same compound, the “Solubility” value in data set [6] (setting [10]) is reported as 0.005 mg/ml.
With `COc1ccc(CCN(C)CCCC(C#N)(c2ccc(OC)c(OC)c2)C(C)C)cc1OC` (centres unmarked) [Verapamil], in data set [3], the HBD is recorded as 0 and the PSA was 56.3.
`COC(=O)C1=C(C)NC(C)=C(C(=O)OC)C1c1ccccc1[N+](=O)[O-]` [Nifedipine]: in data set [4], the “Urinary excretion (f e)” value is 0 % of dose.
On to `COc1ccc(C(CN(C)C)C2(O)CCCCC2)cc1` (centres unmarked) [Venlafaxine], for which the “Calculated P eff from P‐Caco2” value in data set [1] is reported as 4.0 10^−4 cm/s. This compound yielded a Papp at 2 h, 1 μM in data set [2] of 33.2 ×10⁻⁶ cm/s. In data set [3], the HBD was 1, the “log D” value is given as 0.76 and the PSA is 32.8. In data set [4], the “Urinary excretion (f e)” value is listed as 4.6 % of dose, the CL is 60.35 L/h and the F is reported as 0.37. Also, in data set [5] (setting [9]), the CL is 64.5 mL/min/kg. The F in data set [5] (rat, in vivo) is listed as 0.13. The compound also came in with a microsomal CLint at 1 μM in data set [7] of under 10 µL/min/mg.
Consider `CC[C@H]1OC(=O)[C@H](C)[C@@H](O[C@H]2C[C@@](C)(OC)[C@@H](O)[C@H](C)O2)[C@H](C)[C@@H](O[C@@H]2O[C@H](C)C[C@H](N(C)C)[C@H]2O)[C@](C)(O)C[C@@H](C)C(=O)[C@H](C)[C@@H](O)[C@]1(C)O` [Erythromycin], for which, in data set [3], the HBD was 5, the “log D” value is recorded as 1.16 and the PSA was 203.3. Further, in data set [4], the CL was 18.73 L/h, the F is given as 0.21 and the Vss was 0.60 L/kg. In addition, the CL in data set [5] (setting [9]) was 105 mL/min/kg. Also, the F in data set [5] (rat, in vivo) was 0.14. Besides, the “Solubility” value in data set [6] (setting [10]) was 2 mg/ml.
With `COc1ccc([C@@H]2Sc3ccccc3N(CCN(C)C)C(=O)[C@@H]2OC(C)=O)cc1` [Diltiazem], in data set [3], the HBD was 0, the PSA was 56.5 and the “Base pKa” value was 8.1. Besides, in data set [4], the CL was 48.3 L/h and the volume of distribution (Vss) was 5.2 L/kg. In data set [5] (setting [9]), the CL was 42 mL/min/kg. The F in data set [5] (rat, in vivo) is 0.06. Also, the “Solubility” value in data set [6] (setting [10]) was 0.47 mg/ml. In data set [7], this compound showed a microsomal CLint at 1 μM of 35 µL/min/mg.
For the compound `COCCc1ccc(OCC(O)CNC(C)C)cc1` (centres unmarked) [Metoprolol], in data set [3], the HBD is reported as 2, the log distribution coefficient (log D) was 0.16 and the PSA is recorded as 55.0. In data set [4], the CL is 65.34 L/h and the Vss was 5.18 L/kg. For the same compound, the CL in data set [5] (setting [9]) is 65.2 mL/min/kg. Moreover, the “Solubility” value in data set [6] (setting [11]) is recorded as 299.8 (FaHIF) mg/ml. In data set [7], the microsomal CLint at 1 μM amounted to 19 µL/min/mg.
On to `COCCOC(=O)C1=C(C)NC(C)=C(C(=O)OC(C)C)C1c1cccc([N+](=O)[O-])c1` (centres unmarked) [Nimodipine], for which the “Calculated P eff from P‐Caco2” value in data set [1] was 3.3 10^−4 cm/s. In data set [2], the apparent permeability coefficient (Papp) at 2 h, 1 μM amounted to 22.2 ×10⁻⁶ cm/s. For the same compound, in data set [3], the HBD is recorded as 1, the “log D” value was 2.86 and the PSA is reported as 121.6. Further, in data set [4], the CL is 58.8 L/h, the F is reported as 0.33 and the Vss was 0.94 L/kg. The CL in data set [5] (setting [9]) is 1.5 mL/min/kg. For the same compound, the F in data set [5] (rat, in vivo) was 0.22. The “Solubility” value in data set [6] (setting [10]) is 0.024 mg/ml. The microsomal CLint at 1 μM in data set [7] is over 1000 µL/min/mg.
Turning to `Oc1ccc2c3c1O[C@H]1[C@@H](O)CC[C@@]4(O)[C@@H](C2)N(CC2CCC2)CC[C@]314` [Nalbuphine], the “Calculated P eff from P‐Caco2” value in data set [1] was 3.8 10^−4 cm/s. In addition, the Papp at 2 h, 1 μM in data set [2] came to 29.8 ×10⁻⁶ cm/s. In data set [3], the HBD is 3, the “log D” value is given as 0.81, the PSA is given as 78.3 and the “Base pKa” value is 10.0. Besides, in data set [4], the CL was 90 L/h and the volume of distribution (Vss) was 4.63 L/kg. Also, in data set [5] (setting [9]), the CL is 63 mL/min/kg. Moreover, the “Solubility” value in data set [6] (setting [10]) was 35.5 mg/ml. In data set [7], this compound displayed an intrinsic clearance (microsomal CLint) at 1 μM of under 10 µL/min/mg.
As for `CCCc1nn(C)c2c(=O)[nH]c(-c3cc(S(=O)(=O)N4CCN(C)CC4)ccc3OCC)nc12` [Sildenafil], the “Calculated P eff from P‐Caco2” value in data set [1] was 3.7 10^−4 cm/s. The compound also gave a Papp at 2 h, 1 μM in data set [2] of 28.6 ×10⁻⁶ cm/s. In data set [3], the HBD is 1, the “log D” value is given as 2.45, the PSA is on record as 105.2 and the “Base pKa” value is 6.0. In data set [4], the CL was 40.08 L/h and the F is reported as 0.41. For the same compound, the CL in data set [5] (setting [9]) is 38.5 mL/min/kg. Further, in data set [5] (rat, in vivo), the F is 0.06. The “Solubility” value in data set [6] (setting [10]) is reported as 3.5 mg/ml. Further, the intrinsic clearance (microsomal CLint) at 1 μM in data set [7] was found to be 98 µL/min/mg.
Take `CCC(C)n1ncn(-c2ccc(N3CCN(c4ccc(OCC5COC(Cn6cncn6)(c6ccc(Cl)cc6Cl)O5)cc4)CC3)cc2)c1=O` (centres unmarked) [Itraconazole]: in data set [8], the f up is 0.009. Moreover, in data set [3], the HBD was 0, the “log D” value was 3.27 and the PSA was 84.7. Moreover, in data set [4], the “Urinary excretion (f e)” value is listed as < 1 % of dose, the CL is 22.86 L/h and the F is listed as 0.76. Further, the CL in data set [5] (setting [9]) is 9.1 mL/min/kg. In addition, the F in data set [5] (rat, in vivo) is on record as 0.35. Moreover, the “Solubility” value in data set [6] (setting [11]) was 0.006 (FaHIF) mg/ml.
